Data from patent US10106777B2, “Directed differentiation and maturation of pluripotent cells into hepatocyte like cells by modulation of Wnt-signalling pathway” (Takara Bio Europe AB, priority 2010, dated 2018).

Legend:
[1] = test system: feeder free cultured hPS cells
Procedure: Feeder free cultured hPS cells with and without the GSK3 inhibitor, as well as an alternative method where a split media as described in FIG. 3C were compared for their hepatic profile and homogeneity.
A) Results from Activity assay of CYP1A and CYP3A measured by conversion of paracetamol and OH_midazolam respectively.
hESCs cultured under feeder free conditions were incubated in media supplemented with Activin A. The cells were then induced into hepatocytes by differentiating them to hepatic progenitor cells and then to more mature hepatocyte like cells. Cells cultured with and without the GSK3 inhibitor were compared for their hepatic profile and homogeneity.

hiPS cells [2] = test system: hiPS cells
Procedure: FIGS. 5A and B. hiPS cells cultured with and without the GSK3 inhibitor were compared for their hepatic profile and homogeneity. Where a GSK3 inhibitor was added it was added at a later stage of the differentiation, according to FIG. 3. Derivation of hepatocytes from human induced pluripotent stem cells (hiPS).
The cells were 30 days, n=8. hiPS vs hiPS+BIO.
The undifferentiated hiPS cells were cultured in Activin A supplemented media to stimulate initial differentiation into partly differentiated cells. The hiPS derived partly differentiated cells were then passaged (to plates coated with 0.1% Gelatin or Matrigel 0.016 mM) and induced to hepatic progenitor cells and then to hepatocyte like cells in media with and without BIO supplementation, see FIG. 3 A)-B).
The hiPS cells were cultured on mEFs until they were confluent. The cells were washed twice in PBS+/+ and treated with Activin A containing medium (See FIG. 3 a-b). The cells adapted an endoderm like morphology around day 3. When the majority of the cells were partly differentiated, the cells were exposed to media supplemented with factors inducing the cells into hepatocyte-like cells (See FIG. 3A)-B)) plus or minus BIO.

hES cells [3] = test system: hES cells
Procedure: Where a GSK3 inhibitor was added it was added at a later stage of the differentiation, according to FIG. 3B.
B) Results of hepatic markers from Q-PCR of the same cells that were analysed by Activity assay (Q-PCR hPS+/−BIO) n=4.

MEF cultured hESC = assay: Cell death on addition of BIO at day 3 of differentiation; format: cell-based, human
Procedure: (§1) Thus it appears advantageous to add GSK-3 inhibitors at a later stage of differentiation to avoid massive cell death seen when it is added at day 3. […] In addition, GSK3 inhibitors at this stage may contribute/stimulate to hepatic induction of the competent endoderm.

[4] = test system: UDP-glucuronyltransferases (UGTs); assay: UGT metabolic activity in hESC-HEP from feeder-free hESC; format: cell-based, human
From the text: FIG. 11. Relative expression levels of UGT hepatic metabolic markers in hESC-HEP generated with or without Wnt-signalling modulation by GSK-3 inhibitor BIO during endoderm to hepatocyte-like cell phase. FC=fold change relative expression, control set […] to 1 for each example. Graphs show expression levels in cells treated with one of three differentiation/maturation protocols (see example 21) and +/−GSK-3 inhibitor treatment for activity of UGTs on specific UGT substrates: (UGT1A1,[8-estradiol]); (UGT2B, [8-estradiol]; (UGT1A6, [1-Napthol]), (UGT1A9, [Propofol]), (UGT2B7, [Naloxone]). A non-specific control (Methylumbelliferone) was also included. n=number of experiments averaged to obtain results.
Metabolic activity of hESC-HEP derived from hESCs cultured in feeder-free conditions (see Examples 12-14) was measured to determine the effect of GSK-3 inhibition during development and maturation by examining the activity of several UDP-glucuronyltransferases (UGTs) (enzymes that participate in the metabolism of many drugs). Activity of these UGTs was tested via several substrates, namely: β-estradiol (UGT1A1, 3-glucuronide), 1-naphthol (UGT1A6), propofol (UGT1A9), and naloxone (UGT2B7). A non-specific control (Methylumbelliferone) was also included (see FIGS. 12A-B). hESC-HEPs were differentiated essentially according to Example 12, up to day 7. […]

hES cells [5] = test system: hES cells; remark: listed apart in the source
Procedure: FIGS. 6A and B. hES cells cultured with and without the GSK3 inhibitor were compared for their hepatic profile and homogeneity, as described in examples 12 and 13. Where a GSK3 inhibitor was added it was added at a later stage of the differentiation, according to FIG. 3B.
A) Results from Activity Assay of CYP1A, 3A and 2C. […] The cells were 30 days, n=8. hPS vs hPS+BIO.B)

hiPS cells [6] = test system: hiPS cells; remark: listed apart in the source
[7] = test system: feeder free cultured hPS cells; assay: Hepatic gene marker expression in hepatocyte-like cells from feeder free hESC; format: cell-based, human; settings: with vs without GSK3 inhibitor
Procedure: The split media (SM) gave the same levels as without split media. Two controls were used undifferentiated cells cultured feeder free (UD feeder free) and a perpetual cell line from a hepatocellular carcinoma (HepG2). The levels of AFP, KRT18 (Keratin 18) and KRT19 (Keratin 19) indicate that the cells are maintained in a stage where they still have the ability to proliferate. The cells were 23 days when they were analyzed, n=3.

[8] = test system: hESC-HEP (cell-line SA002)
Procedure: Qrt-PCR data is presented as fold change gene expression levels of HepG2 except for BSEP, which graph show fold change of calibrator. N=2-3, mean±SEM.
hESC-HEP were derived from cell-line SA002 cultures on mEF-layer according to Example 9, FIG. 2, protocol iii (absence of BIO between day 3-10) or Example 11, FIG. 2, protocol iv (presence of 3.5 μM BIO between day 3-10). Total RNA was collected and isolated from the two hES-HEP cultures at day 21, 24, 26 and 28 by using RNA isolation kit from Qiagene. Quantitative reverse transcriptase PCR, QrtPCR, by using Taqman probes, was performed for the following hepatic marker genes: phase I drug metabolizing enzymes; CYP (cytochrome P450) 3A4, 3A5, 3A7, 2C9, phase II drug metabolizing enzymes GSTA1 (glutation-S-transferas A1), UGT2B7 (UDP glucuronosyltransferase 2B7), phase III, transporters; MRP2 (multi-drug residence protein 2), BSEP (bile salt export pump), and general hepatic markers; A1AT (alpha-1 antitrypsin), ALB (albumin) and TAT (tyrosine-amino transferas). All data was normalised to the house-keeping gene CREB. RNA from HepG2 cultures was included and data is presented as fold change of HepG2. […] Thus, BSEP expression is instead presented as fold change of a so called calibrator which contains RNA from different sources.

Beta-catenin = assay: Immunolocalisation of Beta-catenin in hES-HEP; format: cell-based, human
From the text: C) Immunolocalisation of Beta-catenin and Dapi staining of hES-HEP-BIO (A) and hES-HEP+BIO (B) Beta-catenin is localized at the cell membrane in hES-HEP cultures not treated and treated with BIO. […] Day 21, 20×

[9] = test system: hESC derived hepatocytes (hESC-HEP); assay: Morphological observation of purity and homogeneity of hESC-HEP cultures; format: cell-based, human
Procedure: FIGS. 8A-E. Differentiation of hESC derived hepatocytes in the presence of GSK3 inhibitor from day 3 purifies hepatocytes from other cell types.
A-C show hESC-HEP at day 17, differentiated by protocol i or ii according to FIG. 2. D-E show hESC-HEP at day 15, differentiated by protocol iii or vi according to FIG. 2,
B) 1 μM BIO day 3-9, protocol ii.
C) 5 μM BIO day 3-9, protocol ii.
D) 0 μM BIO day 3-9, 1.5 μM BIO day 10-15 protocol iii,
E) 3.5 μM BIO day 3-9, 1.5 μM BIO day 10-15 protocol vi.
A and B show hESC-HEP cultures which are over grown by another cell type where as in C the majority of cells in the culture are hepatocyte-like cells. E represent a purer hESC-HEP culture than D. White arrow: hepatocyte-like cells, black arrow: other cell type than hepatocyte-like cells. Scale bar: 100 μm.
as §1

[10] = test system: hESC derived hepatocytes (hESC-HEP)
Procedure: Analysis are performed at day 16-18 (n=7-8), 20-21 (n=5) and 25 (n=2) respectively, mean±SD.
MEF-cultured hESCs (hES cells cultured on feeder cells) were differentiated into hepatocyte-like cells according to examples 4, 8 and 9, thus comparing the absence of BIO, a GSK3-inhibitor (Example 4), to the influence of BIO during the maturation step (day 10-26) in maturation medium I and II (MM I and MM II)(Example 8 and 9 respectively). Before adding the first medium, ID day 0-2, the cultures were washed thoroughly with PBS, twice. The different mediums were prepared freshly and added day 0 (DE day 0-1), 2 (DE day 2-4), 4 and 7-10 every other to third day (VH1), 10-26 every second or third day (MMI or MM II). […] Cells were counted in a Bürker chamber and seeded out in 0.1% gelatine coated culture units (e.g. in 24-well plates) at a cell density of 150 to 250K cells per cm^2.
At day 16, 18, 20, 21 and 25 hESC-HEP cultures were analyzed for cytochrome P450 1A activity by incubating the substrate Phenacetine to a final concentration of 26 μM in Phenol Red-free Williams Medium E, supplemented with 0.1% Penicilline-Streptomycin 2 mM L-Glutamine and 25 mM Hepes. […] Samples were analysed by Liquid chromatography-mass spectrometry (LC-MS) LCMS for presence of the metabolite Paracetamol, biotransformed by the cytochrome p450 enzymes Cyp1A2, 1A1.

hESC-HEP [11] = assay: Hepatic marker expression in hESC-HEP, GSK-3 inhibitors at mid and late stage; format: cell-based, human; settings: Kenpaullone 0.23 μM days 3-9, 2.5 μM days 10-23, compared to BIO
From the text: (§2) FIGS. 13A and B. Relative expression levels of hepatic markers in hESC-HEP generated with modulation of Wnt-signalling by GSK-3 inhibitors other than BIO during both mid (days 3-9) and late stage (days 10-23) differentiation. Treatments shown include: hESC-HEP (negative control; cells never exposed to GSK-inhibitors), BIO, SB216763, Kenpaullone, Indirubin-3-O; also included is a second negative control undifferentiated hESC cells (hESC); also included is a further negative control graph showing the expression levels of a housekeeping gene (Creb) across the various samples.
Differentiating cells were exposed to GSK-3 inhibitors during both mid (days 3-9) and late (from day 10-23) stages of differentiation. Three alternative GSK-3 inhibitors were tested alongside BIO to determine effectiveness in inducing hepatic marker expression (SB216763, Kenpaullone and Indirubin-3-O) and results were compiled both for Phase I enzymes and Phase II enzymes and hepatic markers, with two negative controls (hESC-HEP not exposed to GSK-3 inhibition during differentiation, and undifferentiated hESC cells). During days 3-9 of differentiation, concentrations of GSK-3 inhibitors used were as follows: BIO 3.5 μM, SB216763 34 nM, Kenpaullone 0.23 μM and Indirubin-3-O 22 nM. […]

hESC-HEP [12] = assay: Hepatic marker expression in hESC-HEP, GSK-3 inhibitors at later stage (from day 10); format: cell-based, human; settings: GSK-3 inhibitor from day 10, compared to BIO
From the text: as §2, with “12A” for “13A”, “later maturation period (day 10 onwards).” for “both mid (days 3-9) and late stage (days 10-23) differentiation.”, “GSK-inhibitor during differentiation),” for “GSK-inhibitors),”, “(hESC). […] GSK-3 inhibitors were present only during later differentiation (from day 10 onwards);” for “(hESC);”
Furthermore, differentiating cells were exposed to GSK-3 inhibitors only during later (from day 10) stages of differentiation. Three alternative GSK-3 inhibitors were tested alongside BIO to determine effectiveness in inducing hepatic marker expression (SB216763, Kenpaullone and Indirubin-3-O) and results were compiled both for Phase I and Phase II enzymes and hepatic markers, with two negative controls (hESC-HEP not exposed to GSK-3 inhibition during differentiation, and undifferentiated hESC cells). […]

[13] = test system: hESC-HEP cultures (cell line SA002); assay: Functional CYP1A activity in hESC-HEP cultures with NaB together with BIO; format: cell-based, human; settings: NaB 1 mM together with BIO 1.4 μM at day 21-25, vs parallel cultures without NaB
Procedure: FIG. 9. […] Analysis is performed day 24-25, n=1.
Cell line SA002 from mEF cultures was used as starting material.

In the case of `O=C1Nc2cc(Br)ccc2/C1=C1/Nc2ccccc2/C1=N\O` [BIO, (2′Z,3′E)-6-Bromoindirubin-3′-oxime], the “metabolic activity (FIG. 4A)” value [1] is reported as “higher”, the CYP1A activity (hiPS cells [2]) is reported as “Increased” and the CYP3A activity (hiPS cells [2]) is reported as “Increased”. The “activity of CYP1A” value (hiPS cells [2]) was “increased”, the “activity of CYP3A” value (hiPS cells [2]) was “increased” and the “metabolic activity (FIG. 5A)” value (hiPS cells [2]) was “greater metabolic activity”. For the same compound, the “expression of CYP1A1, CYP1A2, CYP3A4, CYP2C9 and CYP7A1” value (hES cells [3]) was “clear increase”, the AAT (hES cells [3]; hPS+/−BIO, n=4) was “increase” and the “transporters such as MRP2, Oct-1, GSTA1, BCEP and OATP2” value (hES cells [3]; hPS+/−BIO, n=4) was “maintained at levels showing a maturation”. For the same compound, the cell death (MEF cultured hESC; 3.5 μM BIO from day 3, compared to 5 μM BIO) was “less dramatic cell death”, the cell death (MEF cultured hESC; 5 μM BIO day 3) was “dramatic cell death” and the “increase of UGT1A1 activity” value ([4]; +/− BIO 1.4 μM days 14-25) was “much greater than for others”. For the same compound, the “activity of most of the UGTs” value ([4]; +/− BIO 1.4 μM days 14-25, three differentiation protocols) was “greater activity”, the “activity of CYP1A” value (hES cells [5]) was “increased” and the “activity of CYP2C” value (hES cells [5]) was “increased”. The “activity of CYP3A” value (hES cells [5]) was “increased”, the “expression of CYP1A1, CYP1A2, CYP3A4 and CYP7A1” value (hiPS cells [6]) was “clear increase” and the “levels of CYP2C9” value (hiPS cells [6]) was “maintained high”. For the same compound, the “mRNA of CD44, AFP, CK18, CK19, CYP1A1, CYP1A2, CYP3A4, CYP2C9, CYP7A1, Albumin, OATP2, A1AT, MRP2” value (hiPS cells [6]) was “Increased”, the “mRNA of CYP1A1, CYP1A2, CYP3A4, CYP2C9, CYP7A1, MRP2, CD44, AFP, CK18, CK19” value (hiPS cells [6]) was “Increased” and the AAT (hiPS cells [6]; hiPS+/−BIO, n=4) was “maintained on a high level”. For the same compound, the AFP levels (hiPS cells [6]; hiPS+/−BIO, n=4) was “decreased”, the Albumin (hiPS cells [6]; hiPS+/−BIO, n=4) was “maintained at a level high compared to known protocols” and the “transporters such as MRP2, Oct-1, GSTA1, BCEP and OATP2” value (hiPS cells [6]; hiPS+/−BIO, n=4, vs HepG2) was “maintained at levels significantly higher than HepG2”. The “maturity of hiPS derived cells (Q-PCR, immunocytochemistry, Activity Assay)” value (hiPS cells [6]; media supplemented with BIO vs absence of GSK-3 inhibitor) was “became more mature”, the “hepatic gene marker expression (FIG. 4B)” value [7] was “higher” and the A1AT expression ([8]; BIO supplemented at day 3) was “strong increase at day 28”. For the same compound, the ALB expression ([8]; BIO supplemented at day 3) was “decreased at day 26”, the “GSTA1 and UGT2B7 expression” value ([8]; BIO supplemented at day 3) was “increased expression” and the “MRP2 and BSEP expression” value ([8]; BIO supplemented at day 3) was “increased expression”. The TAT expression levels ([8]; with BIO vs without BIO, all days) was “higher expression levels”, the “Beta catenin in the cytoplasm and nuclei” value (Beta-catenin; BIO treated hES-HEP cultures, Day 21) was “commonly observed” and the beta-catenin localisation (Beta-catenin; upon BIO treatment) was “translocate from cell membrane to nucleus”. The “culture purity (morphology)” value ([9]; 3.5 μM BIO from day 3 (Example 11) vs untreated (Example 9)) was “more purified hESC-HEP compared to untreated cultures”, the “culture homogeneity (morphology)” value ([9]; 5 μM BIO from day 3, surviving cells passaged day 4) was “highly purified and homogenous culture of hESC-HEP” and the “final purity of the cell populations” value ([9]; BIO addition at a later stage (day 10+)) was “greater final purity”. For the same compound, the “culture homogeneity (morphology)” value ([9]; low concentration (1 μM) of BIO, day 3-9) was “highly heterogeneous cultures where hardly any hepatocyte-like cells were observed” and the “Cyp1A activity over time” value [10] was “increased during time”.
In the case of `O=C1Cc2c([nH]c3ccc(Br)cc23)-c2ccccc2N1` [Kenpaullone, 9-Bromo-7,12-dihydro-indolo[3,2-d][1]benzazepin-6(5H)-one], the “expression of most of the Phase I enzymes” value (hESC-HEP [11]) is reported as “higher levels of expression than BIO” and the “expression of most of the Phase I enzymes and hepatic markers” value (hESC-HEP [12]) is reported as “higher levels of expression than BIO”.
With `CCCC(=O)[O-].[Na+]` [NaB, Sodium Butyrate] the CYP1A activity [13] was “increased”.
